This experiment has as its target GDP-loaded KRAS G12D (Homo sapiens, UniProt P01116, G12D). In words: KRAS G12D Probe Displacement Assay. Type of experiment: binding. The following applies: KRAS G12D 0.5 nM, biotinylated probe 2 4 nM; Table 6 letters; read-out: KRAS G12D Probe Displacement Assay IC50 (class).

Sequence of GDP-loaded KRAS G12D (P01116 1-188 isoform P01116-2 G12D): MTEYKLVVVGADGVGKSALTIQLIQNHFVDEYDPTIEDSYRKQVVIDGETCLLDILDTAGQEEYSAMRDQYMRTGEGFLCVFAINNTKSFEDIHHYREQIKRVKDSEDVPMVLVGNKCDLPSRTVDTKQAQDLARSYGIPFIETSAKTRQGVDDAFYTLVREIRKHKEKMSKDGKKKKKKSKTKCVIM

One may read the IC50 as the concentration that inhibits the measured activity by half. For the compound `Nc1nc2c(-c3c(C(F)(F)F)cc4c(N5CC6CCCC(C5)N6)nc(OC[C@@]56CCCN5C[C@H](F)C6)nc4c3F)ccc(F)c2s1` [Example E90, 4-(4-(3,9-diazabicyclo[3.3.1]nonan-3-yl)-8-fluoro-2-(((2R,7aS)-2-fluorotetrahydro-1H-pyrrolizin-7a(5H)-yl)methoxy)-6-(trifluoromethyl)quinazolin-7-yl)-7-fluorobenzo[d]thiazol-2-amine], the IC50 was less than 50 nM. Then `Nc1nc2c(-c3c(C4CC4(F)F)cc4c(N5CC6CCC(C5)N6)nc(OC[C@@]56CCCN5C[C@H](F)C6)nc4c3F)ccc(F)c2s1` (stereo partly shown) [Example E91, 4-(4-(3,8-diazabicyclo[3.2.1]octan-3-yl)-6-(2,2-difluorocyclopropyl)-8-fluoro-2-((2-fluorotetrahydro-1H-pyrrolizin-7a(5H)-yl)methoxy)quinazolin-7-yl)-7-fluorobenzo[d]thiazol-2-amine], with less than 50 nM. In the case of `Cc1cc(N)nc(-c2c(SC(F)(F)F)cc3c(N4CC5CCC(C4)N5)nc(OC[C@@]45CCCN4C[C@H](F)C5)nc3c2F)c1C(F)(F)F` [Example E92, 6-(4-(3,8-diazabicyclo[3.2.1]octan-3-yl)-8-fluoro-2-(((2R,7aS)-2-fluorotetrahydro-1H-pyrrolizin-7a(5H)-yl)methoxy)-6-((trifluoromethyl)thio)quinazolin-7-yl)-4-methyl-5-(trifluoromethyl)pyridin-2-amine] it was less than 50 nM; in that of `Nc1nc2c(-c3c(SC(F)(F)F)cc4c(N5CC6CCC(C5)N6)nc(OC[C@@]56CCCN5C[C@H](F)C6)nc4c3F)ccc(F)c2s1` [Example E94, 4-(4-(3,8-diazabicyclo[3.2.1]octan-3-yl)-8-fluoro-2-(((2R,7aS)-2-fluorotetrahydro-1H-pyrrolizin-7a(5H)-yl)methoxy)-6-((trifluoromethyl)thio)quinazolin-7-yl)-7-fluorobenzo[d]thiazol-2-amine], less than 50 nM. Then `Nc1nc2c(-c3c(C(F)(F)F)cc4c(N5[C@@H]6CC[C@H]5C(NCCC(F)F)C6)nc(OC[C@@]56CCCN5C[C@H](F)C6)nc4c3F)ccc(F)c2s1` (stereo partly drawn) [Example E95, 4-(4-((1S,4R)-2-((3,3-difluoropropyl)amino)-7-azabicyclo [2.2.1]heptan-7-yl)-8-fluoro-2-(((2R,7As)-2-fluorotetrahydro-1H-pyrrolizin-7a(5H)-yl)methoxy)-6-(trifluoromethyl)quinazolin-7-yl)-7-fluorobenzo[d]thiazol-2-amine], with less than 50 nM. Regarding `Cc1cc(N)nc(-c2c(Cl)cc3c(N4C5CCC4CNC5)nc(OC[C@@]45CCCN4C[C@H](F)C5)nc3c2F)c1C(F)(F)F` [Example E96], the IC50 was less than 50 nM. Take `COCCCNC1C[C@H]2CC[C@@H]1N2c1nc(OC[C@@]23CCCN2C[C@H](F)C3)nc2c(F)c(-c3ccc(F)c4sc(N)nc34)c(C(F)(F)F)cc12` (stereo partly drawn) [Example E97, 7-fluoro-4-(8-fluoro-2-(((2R,7aS)-2-fluorotetrahydro-1H-pyrrolizin-7a(5H)-yl)methoxy)-4-((1S,4R)-2-((3-methoxypropyl)amino)-7-azabicyclo [2.2.1]heptan-7-yl)-6-(trifluoromethyl)quinazolin-7-yl) benzo[d]thiazol-2-amine]: the IC50 is less than 50 nM. Then `Nc1nc2c(-c3c(C(F)(F)F)cc4c(N5C6CNCC5COC6)nc(OC[C@@]56CCCN5C[C@H](F)C6)nc4c3F)ccc(F)c2s1` [Example E98], with less than 50 nM; and `CN(C)C(=O)CCNC1C[C@H]2CC[C@@H]1N2c1nc(OC[C@@]23CCCN2C[C@H](F)C3)nc2c(F)c(-c3ccc(F)c4sc(N)nc34)c(C(F)(F)F)cc12` (stereo partly drawn) [Example E99, 3-(((1S,4R)-7-(7-(2-amino-7-fluorobenzo[d]thiazol-4-yl)-8-fluoro-2-(((2R,7aS)-2-fluorotetrahydro-1H-pyrrolizin-7a(5H)-yl)methoxy)-6-(trifluoromethyl)quinazolin-4-yl)-7-azabicyclo [2.2.1]heptan-2-yl)amino)-N,N-dimethyl propanamide], with less than 50 nM.

`Cc1cc(N)nc(-c2c(C(F)F)cc3c(N4CC5CCC(C4)N5)nc(OC[C@@]45CCCN4C[C@H](F)C5)nc3c2F)c1C(F)(F)F` [Example E100, 6-(4-(3,8-diazabicyclo[3.2.1]octan-3-yl)-6-(difluoromethyl)-8-fluoro-2-(((2R,7aS)-2-fluorotetrahydro-1H-pyrrolizin-7a(5H)-yl)methoxy)quinazolin-7-yl)-4-methyl-5-(trifluoromethyl)pyridin-2-amine]: the IC50 was less than 50 nM. In the case of `Nc1nc2c(-c3c(C(F)(F)F)cc4c(N5C6CCC5CNC6)nc(OC[C@@]56CCCN5C[C@H](F)C6)nc4c3Cl)ccc(F)c2s1` [Example E101, 4-(4-(3,8-diazabicyclo[3.2.1]octan-8-yl)-8-chloro-2-(((2R,7aS)-2-fluorotetrahydro-1H-pyrrolizin-7a(5H)-yl)methoxy)-6-(trifluoromethyl)quinazolin-7-yl)-7-fluorobenzo[d]thiazol-2-amine] it was less than 50 nM; in that of `Nc1cc(Cl)c(C(F)(F)F)c(-c2c(Cl)cc3c(N4C5CCC4CNC5)nc(OC[C@@]45CCCN4C[C@H](F)C5)nc3c2F)n1` [Example E102, 6-(4-(3,8-diazabicyclo[3.2.1]octan-8-yl)-6-chloro-8-fluoro-2-(((2R,7aS)-2-fluorotetrahydro-1H-pyrrolizin-7a(5H)-yl)methoxy)quinazolin-7-yl)-4-chloro-5-(trifluoromethyl)pyridin-2-amine], less than 50 nM.

`CN1C[C@H](F)C[C@]1(C)COc1nc(N2CC3CCC(C2)N3)c2cc(C(F)(F)F)c(-c3ccc(F)c4sc(N)nc34)c(F)c2n1` [Example E103, 4-(4-(3,8-diazabicyclo[3.2.1]octan-3-yl)-8-fluoro-2-(((2R,4R)-4-fluoro-1,2-dimethylpyrrolidin-2-yl)methoxy)-6-(trifluoromethyl)quinazolin-7-yl)-7-fluorobenzo [d]thiazol-2-amine]: the IC50 was less than 50 nM. In the case of `N#Cc1c(N)sc2c(F)ccc(-c3c(C(F)(F)F)cc4c(N5CC6CCC(C5)N6)nc(OC[C@@]56CCCN5C[C@H](F)C6)nc4c3F)c12` [Example E104, 4-(4-(3,8-diazabicyclo[3.2.1]octan-3-yl)-8-fluoro-2-(((2R,7aS)-2-fluorotetrahydro-1H-pyrrolizin-7a(5H)-yl)methoxy)-6-(trifluoromethyl)quinazolin-7-yl)-2-amino-7-fluorobenzo[b]thiophene-3-carbonitrile] it was less than 50 nM; in that of `Oc1cc(Cl)c(C(F)(F)F)c(-c2c(Cl)cc3c(N4CC5CCC(C4)N5)nc(OC[C@@]45CCCN4C[C@H](F)C5)nc3c2F)c1` [Example E105, 3-(4-(3,8-diazabicyclo[3.2.1]octan-3-yl)-6-chloro-8-fluoro-2-(((2R,7aS)-2-fluorotetrahydro-1H-pyrrolizin-7a(5H)-yl)methoxy)quinazolin-7-yl)-5-chloro-4-(trifluoromethyl)phenol], less than 50 nM. On to `N#Cc1c(N)sc2c(F)ccc(-c3c(Cl)cc4c(N5CC6CCC(C5)N6)nc(OC[C@@]56CCCN5C[C@H](F)C6)nc4c3F)c12` [Example E106, 4-(4-(3,8-diazabicyclo[3.2.1]octan-3-yl)-6-chloro-8-fluoro-2-(((2R,7aS)-2-fluorotetrahydro-1H-pyrrolizin-7a(5H)-yl)methoxy)quinazolin-7-yl)-2-amino-7-fluorobenzo[b]thiophene-3-carbonitrile], for which the IC50 is less than 50 nM.

The values are drawn from US20240140957A1, “BRIDGED COMPOUNDS AS KRAS G12D INHIBITOR AND DEGRADER AND THE USE THEREOF” (BeiGene Switzerland GmbH, priority 2021, published 2024).
